Measured values from patent US4610994A, “1,2,3-triazole anticonvulsant drugs” (priority 1984, dated 1986).
Where “and” joins values, the source holds several entries; their conditions need not be identical. Identical values can stand only once. Entries after “also recorded” stand apart in the source; their conditions may differ. Like-named read-outs stand apart in the source and are kept apart here.

What was measured:
[1] = test system: maximal electroshock seizures; experiment: five-day tolerance study in rats (MES test); type: in vivo
Procedure: (§1) Phase VII studies of Compound 10 included five-day LD3, five-day tolerance studies, and effect of chronic administration on the liver microsomal enzyme system. The five-day oral LD3 of Compound 10 is <300 mg/kg in male rats and >300 mg/kg in female rats.
(§2) Thus, the estimated five-day LD3 for Compound 10 is <300 mg/kg in male rats and >300 but <1000 mg/kg in female rats.

[2] = oral absorption in mice from oral/i.p. ratios; type: in vivo
Description: The extent of oral absorption can be determined from the ratio of the oral ED50/i.p. […] The oral TD50/i.p. TD50 and oral ED50/i.p.

[3] = test system: cytochrome P-450; experiment: effect of chronic administration on liver microsomal cytochrome P-450; type: in vivo, rats
Procedure: as §1, §2

[4] = test system: subcutaneous Strychnine seizures; type: in vivo, mice (male albino, CF No. 1); settings: mice i.p.; Compound 10 up to 300 mg/kg
Procedure: (§3) All animals were allowed free access to both food (S/L Custom Lab Diet-7) and water, except when they were removed from their cages for the experimental procedure.
(§4) The drugs were administered either orally or intraperitoneally in a volume of 0.01 ml/g body weight in mice and 0.04 ml/10 g in rats. All tests were conducted at the previously determined time of peak drug effect.
(§5) The profile of anticonvulsant activity for each substance was established by five tests: one electrical and four chemical. The electrical test employed was the maximal electroshock seizure pattern test. […] Except for the sc Strych Test, these tests measure the ability of anticonvulsants to afford complete protection against threshold seizures induced by the subcutaneous injection of the CD97 of the convulsant agent.
(§6) All convulsants were administered subcutaneously into a loose fold of skin on the back of the neck in a volume of 0.01 ml/g body weight in mice; Metrazol was injected in a volume of 0.02 ml/10 g body weight in rats. The convulsant drugs were administered at the previously determined time of peak anticonvulsant action of the drug under study. […] Except for strychnine, absence of a five-second episode of clonic spasms (threshold seizure) was taken as protection. In the case of strychnine, complete abolition of the hindleg tonic extension was taken as protection.

[5] = minimal neurotoxicity (ataxia, loss of placing response and muscle tone) in rats; settings: for TD3: oral
Procedure: as §3, §4
(§7) The profile of toxicity for each test drug was established by the following procedures: Firstly, the minimal neurotoxic dose (TD50) was determined by the rotorod procedure at the time of peak neurotoxic effect. When a normal mouse is placed on a knurled rod one inch in diameter rotating at a speed of six rpm it can maintain its equilibrium for long periods of time. Neurological deficit is indicated by inability of the mouse to maintain its equilibrium for one minute in each of three trials on this rotating rod. Neurological deficit in rats is indicated by ataxia, loss of placing response and muscle tone.

[6] = 24-hour lethality (LD50) in mice i.p.
[7] = test system: cytochrome C reductase; experiment: effect of chronic administration on liver cytochrome C reductase; type: in vivo, rats
Procedure: as §1, §2

[8] = loss of righting reflex (HD50) in mice i.p.; design: species or system mice (male albino, CF No. 1); settings: mouse, in vivo, ip
Procedure: (§8) The profile of toxicity for each test drug was established by the following procedures: Firstly, the minimal neurotoxic dose (TD50) was determined by the rotorod procedure at the time of peak neurotoxic effect. When a normal mouse is placed on a knurled rod one inch in diameter rotating at a speed of six rpm it can maintain its equilibrium for long periods of time. Neurological deficit is indicated by inability of the mouse to maintain its equilibrium for one minute in each of three trials on this rotating rod. […] The HD50 represents the median dose at which 50% of animals lose their righting reflex.

[9] = maximal electroshock seizure (MES) pattern test in rats; settings: rat, in vivo, po, Safety ratio (TD3/ED97), rats, MES
Procedure: as §3, §4, §5

[10] = test system: maximal electroshock seizures; experiment: as above
Procedure: as §3, §4, §5

[11] = test system: subcutaneous Metrazol seizures; experiment: subcutaneous Metrazol Seizure Threshold Test (sc Met) in mice; settings: for ED97: sc Met
Procedure: as §3, §4, §5, §6

[12] = test system: subcutaneous Bicuculline seizures; experiment: subcutaneous Bicuculline Seizure Threshold Test (sc Bic) in mice; type: in vivo, mice (male albino, CF No. 1); settings: mice i.p.; Compound 10 up to 300 mg/kg
Procedure: as §3, §4, §5, §6

[13] = Phase III toxicity profile (overt signs and symptoms) in mice i.p.
Procedure: as §8

[14] = test system: maximal electro-shock seizure (MES) and subcutaneous pentylenetetrazole (Metrazole) seizure threshold (scMet); experiment: Phase I anticonvulsant screening (MES test and scMet test); type: in vivo, mouse; settings: at effective dose levels (Class I) or 300 mg/kg (8, 13)
[15] = test system: subcutaneous Picrotoxin seizures; experiment: subcutaneous Picrotoxin Seizure Threshold Test (sc Pic) in mice; type: in vivo, mice (male albino, CF No. 1); settings: mice i.p.; Compound 10 up to 300 mg/kg
Procedure: as §3, §4, §5, §6

[16] = five-day oral LD3 in rats; type: in vivo
Procedure: as §1, §2

[17] = in vivo; settings: mouse, po
Procedure: as §3, §4, §5

[18] = in vivo; settings: mouse
Procedure: as §3, §4, §7

[19] = test system: maximal electroshock seizures; experiment: maximal electroshock seizure (MES) pattern test in mice; settings: for ED97 / Safety ratio (TD3/ED97): MES
Procedure: as §3, §4, §5

[20] = test system: subcutaneous Metrazol seizures; experiment: subcutaneous Metrazol Seizure Threshold Test (sc Met) in rats
Procedure: as §3, §4, §5, §6

[21] = test system: p-nitroanisole O-demethylase; experiment: effect of chronic administration on liver p-nitroanisole O-demethylase; type: in vivo, rats
Procedure: as §1, §2

[22] = in vivo; settings: mouse, ip
[23] = in vivo; settings: mouse; remark: listed apart in the source
Procedure: as §3, §4, §5, §6

[24] = test system: hexobarbital sleep time; experiment: hexobarbital sleep time after chronic administration in rats; type: in vivo
Procedure: as §1

[25] = rats, acute (single dose) control group
[26] = mice, i.p., 95% confidence interval
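Wherever Rotorod TD50 is given: mice on rotorod: neurological deficit scored when the animal cannot keep balance for 1 min in every one of three trials on a 1-inch knurled rod turning at 6 rpm.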
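Wherever TPE by the rotorod test is given: mice on rotorod: neurological deficit scored when the animal cannot keep balance for 1 min in every one of three trials on a 1-inch knurled rod turning at 6 rpm.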
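Wherever rotorod toxicity is given: mice on rotorod: neurological deficit scored when the animal cannot keep balance for 1 min in every one of three trials on a 1-inch knurled rod turning at 6 rpm.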
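Wherever time of peak effect (TPE), rotorod toxicity test is given: mice on rotorod: neurological deficit scored when the animal cannot keep balance for 1 min in every one of three trials on a 1-inch knurled rod turning at 6 rpm.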

## Clc1ccc(-n2nncc2-c2cccnc2)cc1 [Compound 10, 1-(para-chlorophenyl)-5-(3-pyridyl)-1H-1,2,3-triazole]
[1]; acute (single dose, 50 mg/kg) control group, 50 mg/kg
  MES test, animals protected: 6 of 8 protected and 6 of 8 rats protected
[1]; chronic-treated group, five daily doses of 50 mg/kg
  MES test, animals protected: 1 of 8 protected
[1]; five days
  tolerance to the anticonvulsant effects: significant tolerance occurs within this period of time
[2]
  oral absorption: adequately absorbed in mice after oral administration
[3]; chronically treated rats
  cytochrome P-450: 0.988±0.096 n moles/mg
[3]; [25]
  cytochrome P-450: 0.720±0.054 n moles/mg
[3]; rats, chronic vs acute
  increase in liver cytochrome P-450: 37%
[4]
  effectiveness by the sc Strych test: ineffectiveness; also recorded: ineffective in doses up to 300 mg/kg
[5]; oral administration
  neurotoxicity in rats relative to mice: approximately 16 times
[5]; rat, in vivo, po
  TD50: 44.5 mg/kg
[5]; rats, MES
  TD3: 16
[5]; rats, sc Met
  TD3: 16
[5]; rats, p.o.
  TPE by the toxicity test: two
[5]; rats, p.o., 95% confidence interval
  TD50: 44.48 (32.78-62.61) mg/kg
[6]
  LD50/HD50 ratio: 1.08
  LD50/TD50 ratio: 2.33
[7]; chronically treated rats
  cytochrome C reductase: 219±24 n moles/mg/min
[7]; [25]
  cytochrome C reductase: 157±11 n moles/mg/min
[7]; rats, chronic vs acute
  increase in cytochrome C reductase: 40%
[8]
  HD50 (righting reflex): 525.98(473.77-564.48) mg/kg
  time of peak toxicity (TPE), righting reflex: 6 h
[8]; HD50 (righting reflex)
  TD50: 526 mg/kg
[9]
  selectivity ratio: 0.07
[10]; Rattus norvegicus, po
  ED97: 215 mg/kg
[10]; Rattus norvegicus, po, read-out: MES ED50
  ED50: 49.9 mg/kg
[10]; rats, oral
  97% protection by the MES and sc Met tests in nontoxic doses: do not provide 97% protection
[10]; rats, p.o.
  TPE by the MES and sc Met tests: four
[11]; mice
  oral ED50/i.p. ED50 ratio, sc Met: 5.03
[11]; mice, i.p.
  toxicity of doses giving 97% protection, sc Met test: toxic doses are required
  ED97: 900
[11]; [26]
  sc Met ED50: 26.95 mg/kg and 26.95(9.89-55.08) mg/kg
[11]; mice, oral
  ED97: 980
[11]; mice, p.o.
  sc Met ED50: 135.67 mg/kg
[11]; oral administration
  potency by the sc Met test in mice relative to rats: about 21/2
[12]
  effectiveness by the sc Bic test: ineffectiveness; also recorded: ineffective in doses up to 300 mg/kg
[13]; 1TD50
  Profile of acute toxicity, 1 x TD50: decreased motor activity, rotorod toxicity, ataxia, and decreased respiration; also recorded: normal after 24 hours; also recorded: normal at 24 hrs
[13]; 2TD50
  Profile of acute toxicity, 2 x TD50: cyanosis, muscle relaxation, and loss of righting reflex; also recorded: dead after 24 hours
[13]; 4TD50
  Profile of acute toxicity, 4 x TD50: displayed all the symptoms characteristic of those given 1TD50 and 2TD50's of the test drug; however, the symptoms were more intense; also recorded: dead 4 hours after drug administration and the other was dead at 24 hours
[14]
  signs of neurological deficit: do not exhibit significant signs of neurological deficit
[15]
  effectiveness by the sc Pic test: ineffectiveness; also recorded: ineffective in doses up to 300 mg/kg
[16]; male rats
  five-day oral LD3: < 300 mg/kg
[16]; rat, in vivo, po, 7200 min
  five-day oral LD3: > 300 mg/kg
[16]; rats, chronic
  toxicity, male vs female rats: more toxic in male than in female rats
300 mg/kg, four hours after administration
  toxicity: one of two animals
300 mg/kg, thirty minutes after administration
  Rotorod toxicity: all four animals
mice, i.p.
  time of peak effect (TPE), rotorod toxicity test: 60 min
mice, i.p., MES
  TD3: 175
mice, i.p., sc Met
  TD3: 175
[26]
  Rotorod TD50: 244.51(221.82-275.17) mg/kg and 244.51(222.82-275.17) mg/kg
mice, oral, MES
  TD3: 173
mice, oral, sc Met
  TD3: 173
mice, p.o.
  TPE by the rotorod test: six
mice, p.o., 95% confidence interval
  TD50: 729.08 (492.47-1009.17) mg/kg
[17]
  selectivity ratio: 5.54
[18]; ip
  TD50: 245 mg/kg
[18]; po
  TD50: 729 mg/kg
[19]; mice
  oral ED50/i.p. ED50 ratio, MES: 2.00
[19]; mice and rats, oral
  toxicity of doses giving 97% protection, MES or sc Met test: toxic doses are required to protect 97% of animals
[19]; mice i.p., anticonvulsant tests (MES, sc Met)
  time of peak effect (TPE), anticonvulsant tests: 30 min
[19]; mice, i.p.
  mice protected in the MES test at nontoxic doses: 97%
  protective index (TD50/ED50) by the MES test: 3.72
  ED97: 145
  Safety ratio (TD3/ED97): 1.2
[19]; [26]
  MES ED50: 65.76 mg/kg and 65.76(51.82-83.19) mg/kg
[19]; mice, oral
  ED97: 275
  Safety ratio (TD3/ED97): 0.6
[19]; mice, p.o.
  MES ED50: 131.67 mg/kg
  potency relative to phenobarbital, MES test: 1/6
  potency relative to phenytoin, MES test: 1/15
[20]; oral, sc Met
  ED97: > 10000
  Safety ratio (TD3/ED97): 0.002
[20]; p.o.
  sc Met ED50: 329.18 mg/kg
[21]; chronically treated rats
  p-nitroanisole O-demethylase: 0.640±0.098 n moles/mg/min
[21]; [25]
  p-nitroanisole O-demethylase: 0.261±0.035 n moles/mg/min
[21]; rats, chronic vs acute
  increase in p-nitroanisole O-demethylase: 145%
[22]
  LD50 at 24 h: 569 mg/kg
[23]; ip
  selectivity ratio: 9.07
[23]; po
  selectivity ratio: 5.37
[24]; acute (single dose) control group
  hexobarbital sleep time: 16.3 ± 1.2 min
[24]; chronic-treated group
  hexobarbital sleep time: 15.0 ± 2.0 min
